Measured values published in US8399663B2, “Salt of 1,3,5-triazine-2,4,6-triamine derivative” (Astellas Pharma Inc., priority 2009, dated 2013).

Tests used:
[1] = pKa value of the compound; type: physicochemical
[2] = test system: methamphetamine-induced hyperlocomotion; experiment: Methamphetamine-induced hyperlocomotion model (animal model of Schizophrenia); type: in vivo, male ddY mouse; settings: oral administration to male ddY mice
Procedure: Methamphetamine is a psychostimulant, and is known to cause symptoms that are similar to Schizophrenia by increasing the transmission in the dopaminergic neurons. The abnormal behavior produced when methamphetamine is administered to an animal is generally used as a screening method for a therapeutic drug for Schizophrenia (Oka et al., 1993, J. Pharmacol. Exp. Ther., 264:158-165, herein incorporated by reference). That is, a male ddY mouse was placed in an activity monitoring apparatus, and after 30 min, methamphetamine was administered. Immediately after administering methamphetamine, the mouse was returned to the monitoring apparatus, and the activity for 1 hour from immediately after the return was measured. For the measurement of the activity, a Supermex sensor manufactured by Muromachi Kikai Co., Ltd. was used. A solvent, or a diluted solution obtained by diluting each of the test compounds with a solvent at multiple concentrations was orally administered to mice in a group. As the solvent, a 0.5% aqueous methyl cellulose solution was used. The statistical analysis was carried out between the group administered with the solvent and the group administered with the drug, using a Dunnett's test.

pKa [1]	Structure (SMILES)	methamphetamine-induced hyperlocomotion inhibitory action [2]
3.9	Fc1ccc(Nc2nc(NCc3ncccn3)nc(Nc3ccccc3)n2)cc1 [compound A, N-(4-fluorophenyl)-N′-phenyl-N″-(pyrimidin-2-ylmethyl)-1,3,5-triazine-2,4,6-triamine]	inhibited the methamphetamine-induced hyperlocomotion
	Fc1ccc(Nc2nc(NCc3ncccn3)nc(Nc3ccc(F)cc3)n2)cc1 [compound B, N,N′-bis(4-fluorophenyl)-N″-(pyrimidin-2-ylmethyl)-1,3,5-triazine-2,4,6-triamine]	inhibited the methamphetamine-induced hyperlocomotion
